Measurements taken from PMC5750217 (Nature Communications, 2018).

Legend:
[1] = molecular target: T1, GltPh-G396S/R397C (Pyrococcus horikoshii, UniProt O59010, G396S/R397C); experiment: biochemical; format: biochemical
T1 construct: hexa-His (N, cleaved yes); made in house; host or cells: Escherichia coli Top10 (pBAD)
Method: (§1) Mutant and wild-type GltPh with an amino-terminal hexa-His tag were expressed in Escherichia coli Top10 cells (Invitrogen), which were grown in Luria broth medium at 37 °C. Ampicillin was added to a final concentration of 100 μg per ml. To induce expression of GltPh, 0.1% L-arabinose was added when cells reached an optical density of 0.6 at 660 nm, and cells were harvested 4 h post induction. Membranes were isolated, and then solubilised with n-dodecyl-β-D-maltopyranoside (C12M, Anatrace). Histidine containing proteins were purified using Ni^2+−nitrilotriacetic acid resin (Qiagen). The histidine tag was subsequently removed from GltPh by digestion with thrombin (10 U per mg protein) and the protein further purified on a Superdex 200 size exclusion column, where the detergent was exchanged to n-decyl-β-D-maltopyranoside (C10M, Anatrace).
(§2) Pure protein was reconstituted into liposomes composed of 75% E. coli Polar Lipid Extract and 25% 1-palmitoyl-2-oleoyl-sn-glycero-3 ^−phopshocholine (Avanti Polar Lipids). Lipids were mixed, dried under nitrogen and resuspended in internal buffer (100 mM KCl, 20 mM HEPES-Tris pH 7.5) using brief sonication (Laboratory Supplies Co.). The lipid suspension was frozen in liquid nitrogen and thawed at room temperature several times. Liposomes were formed by extrusion through 400 nm polycarbonate membranes (Avanti Polar Lipids) and were treated with Triton X-100 at a 0.5:1 (w/w) detergent to lipid ratio prior to the addition of protein at 0.25 μg protein per mg lipid. The protein/lipid mixture was left at room temperature for 30 min before detergent was removed using SM2 Biobeads (BioRad). The mixture was then incubated with gentle agitation, with four consecutive batches of Biobeads (80 mg per ml). Proteoliposomes were concentrated by centrifugation at 150,000 g for 30 min, resuspended at 100 mg lipid per ml and either used immediately or flash-frozen in liquid nitrogen and stored at −80 °C.
(§3) Mutant and wild-type GltPh-mediated transport of radiolabelled substrate was assayed by diluting proteoliposomes (100 mg lipid per ml) 133-fold into uptake buffer (100 mM NaCl, 20 mM HEPES-Tris pH 7.5, 1 μM valinomycin, 100 nM–1 µM L-[^3H]substrate) pre-warmed to 30 °C. At each time point, a 200 µl aliquot was removed and diluted 10-fold into ice-cold quench buffer (100 mM LiCl, 20 mM HEPES-Tris pH 7.5), followed by immediate filtration over nitrocellulose filters (0.22 μm pore size, Millipore). The filters were washed with ice-cold quench buffer and assayed for radioactivity using a Trilux beta counter (PerkinElmer). To establish substrate concentration–response curves, extraliposomal L-[^3H]substrate was varied between 500 nM and 100 µM, maintaining NaCl concentrations at 300 mM. For inhibitor concentration–response curves, for wild-type GltPh 100 nM L-[^3H]aspartate, and for mutant GltPh 1 µM L-[^3H]serine, was co-applied with varying inhibitor concentrations. Background levels of uptake were measured by diluting proteoliposomes into internal buffer (100 mM KCl, 20 mM HEPES-Tris pH 7.5) containing 1 µM of valinomycin and the indicated concentrations of L-[^3H]substrate.

[2] = molecular target: T2, wild-type GltPh (Pyrococcus horikoshii, UniProt O59010); experiment: Proteoliposome transport assay, wild-type GltPh; format: biochemical; conditions: for Transport of radiolabelled substrate into proteoliposomes (in words): 1 µM L-[3H]substrate, Na+ gradient, pH 7.5
T2 construct: hexa-His (N, cleaved yes); made in house; host or cells: Escherichia coli Top10 (pBAD)
T2 sequence (O59010 1-425): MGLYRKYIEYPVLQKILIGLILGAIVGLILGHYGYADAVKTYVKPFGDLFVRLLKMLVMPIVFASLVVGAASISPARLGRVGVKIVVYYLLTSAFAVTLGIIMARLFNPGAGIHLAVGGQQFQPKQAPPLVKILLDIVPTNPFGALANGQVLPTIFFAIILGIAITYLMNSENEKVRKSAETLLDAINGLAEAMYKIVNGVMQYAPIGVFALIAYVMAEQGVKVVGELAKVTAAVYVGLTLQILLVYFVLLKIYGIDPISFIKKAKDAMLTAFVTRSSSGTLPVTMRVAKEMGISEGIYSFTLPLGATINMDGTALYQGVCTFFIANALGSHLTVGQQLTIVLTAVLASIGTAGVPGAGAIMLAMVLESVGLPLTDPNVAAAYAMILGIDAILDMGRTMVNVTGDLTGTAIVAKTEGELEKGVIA
Method: as §1, §2, §3

T1 sequence (O59010 whole entry G396S/R397C): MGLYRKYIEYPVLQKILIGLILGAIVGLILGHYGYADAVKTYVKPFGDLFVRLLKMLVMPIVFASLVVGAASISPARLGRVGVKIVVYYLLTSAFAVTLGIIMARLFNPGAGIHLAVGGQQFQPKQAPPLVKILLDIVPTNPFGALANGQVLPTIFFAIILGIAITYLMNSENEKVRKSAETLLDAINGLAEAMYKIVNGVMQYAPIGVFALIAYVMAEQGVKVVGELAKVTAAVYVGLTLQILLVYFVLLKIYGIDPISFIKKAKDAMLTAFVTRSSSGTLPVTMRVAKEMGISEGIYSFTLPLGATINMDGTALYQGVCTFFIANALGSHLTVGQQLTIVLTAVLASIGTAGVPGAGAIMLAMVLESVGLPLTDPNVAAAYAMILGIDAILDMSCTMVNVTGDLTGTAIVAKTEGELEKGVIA

Which results are given for `N[C@@H](CCC(=O)Nc1ccc([N+](=O)[O-])cc1)C(=O)O` [GPNA, glutamyl-p-nitroanilide]?
IC50 for inhibition of L-[3H]serine transport ([1]; GltPh-G396S/R397C, 1 µM L-[3H]serine): poor inhibitor; IC50 for inhibition of L-[3H]aspartate transport ([2]; 100 nM L-[3H]aspartate): ineffective

For `NC(=O)CC[C@H](N)C(=O)O` [L-glutamine], which “Transport of radiolabelled substrate into proteoliposomes (in words)” value ([1]; GltPh-G396S/R397C, 100 nM L-[3H]aspartate, 1 µM L-[3H]glutamine, Na+ gradient, pH 7.5) is on record?
Its value is “does not effectively transport”.

And the “Transport of radiolabelled substrate into proteoliposomes (in words)” value [2]?
Its value is “not transported”.

`N[C@@H](CO)C(=O)O` [L-serine] was tested. Which EC50 [1] did it give?
The EC50 was 15 ± 2 µM.

And the “Transport of radiolabelled substrate into proteoliposomes (in words)” value [2]?
The value was “not transported”.

`N[C@@H](CS)C(=O)O` [L-cysteine] was tested. Which “Reduction of L-[3H]serine transport by unlabelled competitor (in words)” value ([1]; GltPh-R397C/G396S, 10 µM L-[3H]serine, 100-fold excess unlabelled amino acid) did it give?
The value was “to a similar extent”.
